This is an account of results in US6599885B2, “Derivatives of erythromycin, clarithromycin, roxithromycin or azithromycin with antibiotic and mucolytic activity” (Russinsky Limited, priority 1998, dated 2003).

In brackets after ≈: the same amount, converted by molar mass. Bounds are passed on as bounds.

In one assay the test system is Micrococcus luteus. As to the kind of experiment: MIC liquid tube assay (antibiotic activity). Format: cell-based. Particulars: Micrococcus luteus; liquid tube assay in nutrient broth, 37° C., growth observed after 24 and 48 hours; MIC = last concentration where growth inhibited; read-out: MIC. The protocol:
Micrococcus luteus from stock was streaked on a nutrient agar plate to confirm colony morpbiology, colour and purity. After 24 hours incubation at 37° C. an isolated colony is picked and inoculated into 10 ml of nutrient broth. This is incubated overnight at 37° C. and is subsequently used as the inoculum. 10 mg of each of the test compounds is weighed and dissolved in 10 ml of […] methanol in sterile 20 ml universal containers. This is then diluted with ringers buffer solution to give a concentration of 1 mg/ml. Quantitation of activity is determined using an MIC ([…]) liquid tube assay. For each test substance the following concentrations are set up: 10 μg/ml, 5 μg/ml, 1 μg/ml, 0.5 μg/ml, 0.1 μg/ml, 0.05 μg/ml and 0.01 μg/ml. Each contained nutrient broth and 0.1 ml of overnight culture of Micrococcus luteus. The tubes were incubated at 37° C. and observed for growth after 24 hours and 48 hours. Growth is assessed by dense turbidity, optical density at 660 nm using a spectrophotometer or clarity. The MIC is the last concentration where growth inhibited.
Regarding `CC[C@H]1OC(=O)[C@H](C)[C@@H](O[C@H]2C[C@@](C)(OC)[C@@H](O)[C@H](C)O2)[C@H](C)[C@@H](O[C@@H]2O[C@H](C)C[C@H](N(C)C)[C@H]2O)[C@](C)(OC)C[C@@H](C)C(=O)[C@H](C)[C@@H](O)[C@]1(C)O` [Clarithromycin], the minimal inhibitory concentration (MIC) is not above 0.01 µg/mL.

With `CCC(=O)O[C@H]1[C@H](O[C@@H]2[C@@H](C)[C@H](O[C@H]3C[C@@](C)(OC)[C@@H](O)[C@H](C)O3)[C@@H](C)C(=O)O[C@H](CC)[C@@](C)(O)[C@H](O)[C@@H](C)C(=O)[C@H](C)C[C@@]2(C)O)O[C@H](C)C[C@@H]1N(C)C` [Erythromycin-propionate, Erythromycin Propionate, reference compound], the minimum inhibitory concentration (MIC) lay in the range of 0.01 to 0.05 µg/mL (≈ 0.0127 to 0.0633 µM).

Still in this assay, the particulars now being: liquid tube assay in nutrient broth, 37° C., growth observed after 24 and 48 hours; MIC = last concentration where growth inhibited.
With `CC(=O)N[C@@H](CS)C(=O)O.CC[C@H]1OC(=O)[C@H](C)[C@@H](O[C@H]2C[C@@](C)(OC)[C@@H](O)[C@H](C)O2)[C@H](C)[C@@H](O[C@@H]2O[C@H](C)C[C@H](N(C)C)[C@H]2O)[C@](C)(OC)C[C@@H](C)C(=O)[C@H](C)[C@@H](O)[C@]1(C)O` [Clarithromycin-N-acetylcysteinate [1:1], Clarithromycin-N-Acetylcysteinate-[1:1]-Salt], the MIC entry is given as “≦0.01 μg/ml”.

The compound “Erythromycin Propionate-N-Acetylcysteine-[1:1]-Salt [Erythromycin-N-acetylcysteinate [1:1]]” yielded an MIC of 0.01 to 0.05 µg/mL.

As for “Erythromycin Propionate-N-Acetylcysteine [1:1.8]-Adduct [Erythromycin-N-acetylcysteinate [1:1.8]]”, the minimal inhibitory concentration (MIC) entry is listed as “≦0.01 μg/ml”.

In the case of “Clarithromycin-N-Acetylcysteinate-[1:4]-Salt [Clarithromycin-N-acetylcysteinate [1:4]]”, the minimal inhibitory concentration (MIC) is 0.01 to 0.05 µg/mL.

“Erythromycin Propionate-N-Acetylcysteine [1:4]-Adduct [Erythromycin-N-acetylcysteinate [1:4]]” gave a minimum inhibitory concentration (MIC) of 0.05 to 0.1 µg/mL.

The MIC is the least concentration at which growth counts as inhibited.
